Laboratory results reported in patent publication US20060154907A1, “Method of treating hormonal deficiencies in women undergoing estrogen replacement therapy” (Barr Laboratories, Inc., priority 2000, published 2006).
Several values for one entry are separate records, joined by “and”; a condition that tells them apart may be missing. Equal values may be shown once.

Experiments:
[1] = tested on: uterine horns in mice; test: Weight of uterine horns in ovariectomized mice: estrogen, testosterone or combination; details: daily injections 7 days, 10 μg/Kg of each hormone; for D Hs/BW (dry horns Rt + Lt / body weight) / Lt H D (left horn dry weight) / Rt H D (right horn dry weight): dried 90° C. 24 hrs
From the text: Applicants performed a set of experiments to determine the effects of estrogen and testosterone on weight of uterine horns in mice.
(§1) The protocol employed in the experiment included taking ovariectomized female mice ordered from Charles River Laboratories, of which the females were 32-52 days old, after ovariectomy, and separating them into four groups. The first group of mice received daily injections of testosterone for 7 days. A second group of mice received daily injections of estradiol for 7 days. A third group of mice received daily injections of testosterone plus estradiol for 7 days. Finally, the mice in the fourth group received daily injections of a control vehicle for 7 days. All of the injections were given 1M at 10 AM, alternatively to the right and left buttock. The daily amount injected of the estradiol and/or testosterone was 10 μg/Kg of each hormone, delivered at a dose of 0.25 ml.
(§2) The injections were produced based upon the following protocols. The estradiol selected was the oil-dissolved 17β-estradiol from Sigma (17β-estradiol E-8875. The estradiol was prepared by dissolving 200 μg of the hormone in 0.25 ml ethanol for a ×1000 stock (0.8 mg/1 ml=×1000 stock). Next, 10 μl aliquots were dispensed into nine 15 ml conical plastic tubes and frozen. For each injection, one of the tubes was thawed, 9.99 ml saline was added and then mixed to obtain 10 ml of the solution at a level of 0.8 μg/1 ml. Then, 0.25 ml were injected into each animal.
The testosterone selected was testosterone enanthane from Bristol Myers Squib (Delatestryl™). The testosterone was prepared by aspirating […] from a bottle containing 200 mg/1 ml testosterone via a tuberculin syringe of 1.0 ml. Next, 24.9 ml of ethanol was poured into a 50 ml conical plastic tube. Then 0.1 ml of the testosterone was dissolved in the syringe with the 24.9 ml of ethanol. This produced a ×1000 stock of 0.8 mg/1 ml. Similar to the estradiol protocol, next, 10 μl aliquots were dispensed into nine 15 ml conical plastic tubes and frozen. For each injection, one of the tubes was thawed, 9.99 ml saline is added and then mixed to obtain 10 ml of the solution at a level of 0.8 μg/1 ml. Then, 0.25 ml were injected into each animal. The injections were based for a 20 gm animal. The dose injected per actual weight of the animal may be adjusted by varying the weight, i.e., may vary from 19 gm to 24 gm (0.238 ml to 0.3 ml).
After the seven days of injections, the mice were euthanized via injection from Lumina. The mice were then weighed. After midline laparotomy, 2 ml to 5 ml does of blood was obtained from the heart. The blood was allowed to clot and was then centrifuged and the resulting serum was collected and stored at −80° C. The uterine horns were then identified, transected from the level of the vagina till the ovary (without the ovary and without the parametrium), weighted (i.e., wet weight of Rt and Lt horn), and placed separately in a piece of silver foil paper, and baked in an oven at 90° C. for 24 hrs to obtain the dry weight of the horns.

[2] = tested on: uterine horns in mice; test: Weight of uterine horns in ovariectomized mice: estrogen, oxandrolone or combination; details: second experiment (oxandrolone); for D Hs/BW (dry horns Rt + Lt / body weight) / Lt H D (left horn dry weight) / Rt H D (right horn dry weight): dried 90° C. 24 hrs; for W Hs/BW (wet horns Rt + Lt / body weight) / Lt H W (left horn wet weight) / Rt H W (right horn wet weight): daily injections 7 days
From the text: as §1, §2
A second experiment was performed using the protocols set above. The only change included replacing testosterone with oxandrolone. The oxandrolone was prepared by dissolving a 20 mg powder of the original vial in 1.0 ml of DMSO. 100 μl aliquots were then dispensed into 10 new vials (each containing now 2 mg/vial, or 20 μg/μl) and all vials, except one, were frozen at −20° C. The 9 frozen vials are referred to herein as “Original Stocks”.
Next, one of the Original Stock vials containing 100 μl of 20 μg/μl Oxandrolone was diluted to a 1:5 ratio in DMSO by adding 400 μl DMSO. […] 50 μl aliquots were then dispensed into 10 vials (each containing now 0.4 μg/μl, or 20 μg/50 μl) of which nine were frozen. The frozen vials from this part of the experiment are herein referred to as “Diluted Stocks”.
One Diluted Stock vial was taken and diluted in 24.95 ml saline to get a solution of 20 μg/25 ml oxandrolone, or 0.2 μg/0.25 ml. The 0.5 ml aliquots are then dispensed into 20 vials and frozen. The remaining 15 ml were discarded. On the day of injection, each one of the vials was thawed 0.25 ml were injected into each animal based upon a 20 gm animal. The dose injected may be adjusted per actual weight of the animal (may vary from 19 gm to 24 gm, 0.238 ml to 0.3 ml).
After the last day of injections, the mice were weighed and then euthanized in a CO2 chamber. Blood was obtained from the heart in an amount of 2-5 ml. Time was allotted to let it clot and then it was centrifuged and the serum was collected and stored at −80° C. The abdomen was opened by a longitudinal ventral incision. Then the uterine horns were identified and the right horn was transected from the level of the vagina until the ovary (thus, without the ovary and without the parametrium). This process was repeated for the left horn. Both horns were weighed to determine the wet weight of the horns. Then the horns were placed on silver foil paper and baked in an oven at 90° C. for 24 hrs. Then the dry weight of the horns was taken.

[3] = individual animal, ovariectomized female mice

Compound | Lt H W (left horn wet weight) ([1]; group mean) | Rt H W (right horn wet weight) ([1]; group mean) | W Hs/BW (wet horns Rt + Lt / body weight) ([1]; group mean) | D Hs/BW (dry horns Rt + Lt / body weight) ([1]; group mean) | Lt H D (left horn dry weight) ([1]; group mean) | Rt H D (right horn dry weight) ([1]; group mean) | D Hs/BW (dry horns Rt + Lt / body weight) ([1]; individual animal) | Lt H D (left horn dry weight) ([1]; individual animal) | Rt H D (right horn dry weight) ([1]; individual animal) | Lt H W (left horn wet weight) [1, 3] | Rt H W (right horn wet weight) [1, 3] | W Hs/BW (wet horns Rt + Lt / body weight) [1, 3] | D Hs/BW (dry horns Rt + Lt / body weight) ([2]; group mean) | W Hs/BW (wet horns Rt + Lt / body weight) ([2]; group mean) | D Hs/BW (dry horns Rt + Lt / body weight) ([2]; individual animal) | Lt H D (left horn dry weight) ([2]; individual animal) | Rt H D (right horn dry weight) ([2]; individual animal) | Lt H W (left horn wet weight) ([2]; individual animal) | Rt H W (right horn wet weight) ([2]; individual animal) | W Hs/BW (wet horns Rt + Lt / body weight) ([2]; individual animal)
C[C@]12CC[C@@H]3c4ccc(O)cc4CC[C@H]3[C@@H]1CC[C@@H]2O [E, 17β-estradiol] | 20.0 mg | 19.5 mg | 1.82 mg/gm | 0.27 mg/gm | 2.9 mg | 3.0 mg | 0.28 mg/gm and 0.21 mg/gm and 0.38 mg/gm and 0.24 mg/gm and 0.22 mg/gm | 2.9 mg and 2.2 mg and 4.2 mg and 2.6 mg and 2.4 mg | 3.3 mg and 2.5 mg and 4.0 mg and 2.4 mg and 2.6 mg | 21.5 mg and 18.0 mg and 24.2 mg and 19.5 mg and 16.7 mg | 20.6 mg and 16.2 mg and 26.6 mg and 17.3 mg and 16.9 mg | 1.92 mg/gm and 1.55 mg/gm and 2.37 mg/gm and 1.79 mg/gm and 1.47 mg/gm | 0.66 mg/gm | 3.63 mg/gm | 0.97 mg/gm and 0.60 mg/gm and 0.61 mg/gm and 0.49 mg/gm and 0.63 mg/gm | 12 mg and 4.8 mg and 7.7 mg and 4.6 mg and 5 mg | 9.9 mg and 7.3 mg and 4.7 mg and 6.5 mg and 8.0 mg | 44.9 mg and 29.7 mg and 48.1 mg and 34.4 mg and 32.7 mg | 46.7 mg and 41.2 mg and 30 mg and 35 mg and 44.2 mg | 4.06 mg/gm and 3.52 mg/gm and 3.82 mg/gm and 3.05 mg/gm and 3.70 mg/gm
C[C@]12COC(=O)C[C@@H]1CC[C@@H]1[C@@H]2CC[C@@]2(C)[C@H]1CC[C@]2(C)O [Ox, oxandrolone] |  |  |  |  |  |  |  |  |  |  |  |  | 0.35 mg/gm | 1.54 mg/gm | 0.26 mg/gm and 0.20 mg/gm and 0.76 mg/gm and 0.16 mg/gm and 0.37 mg/gm | 2.3 mg and 2.2 mg and 5.5 mg and 1.4 mg and 4.3 mg | 3.4 mg and 2.0 mg and 12.5 mg and 2.2 mg and 4.2 mg | 14.4 mg and 13.8 mg and 22.9 mg and 11.3 mg and 19.4 mg | 16.5 mg and 12.0 mg and 35.7 mg and 13.2 mg and 14.6 mg | 1.40 mg/gm and 1.22 mg/gm and 2.47 mg/gm and 1.11 mg/gm and 1.50 mg/gm
CCCCCCC(=O)O[C@H]1CC[C@H]2[C@@H]3CCC4=CC(=O)CC[C@]4(C)[C@H]3CC[C@]12C [T, testosterone enanthane] | 12.6 mg | 14.0 mg | 1.21 mg/gm | 0.27 mg/gm | 3.2 mg | 2.8 mg | 0.57 mg/gm and 0.25 mg/gm and 0.16 mg/gm and 0.09 mg/gm and 0.31 mg/gm | 8.2 mg and 4.3 mg and 0.8 mg and 0.9 mg and 1.9 mg | 4.3 mg and 1.1 mg (2×) and 2.5 mg and 4.8 mg | 21.3 mg and 15.6 mg and 3.7 mg and 8.4 mg and 13.9 mg | 16.2 mg and 11.7 mg and 13.5 mg and 8.4 mg and 20.1 mg | 1.72 mg/gm and 1.26 mg/gm and 0.81 mg/gm and 0.72 mg/gm and 1.55 mg/gm |  |  |  |  |  |  |  | 
